Key:
GCPII = GCPII (Homo sapiens, UniProt Q04609); assay: fluorescence-based NAALADase assay, in vitro GCPII inhibitory activity; conditions: relative to 32a
[1] = system: inflammatory and neuropathic pain models; conditions: cited from earlier work
cloned human GCPII = conditions: cited from earlier work

Sequence of GCPII (Q04609 whole entry): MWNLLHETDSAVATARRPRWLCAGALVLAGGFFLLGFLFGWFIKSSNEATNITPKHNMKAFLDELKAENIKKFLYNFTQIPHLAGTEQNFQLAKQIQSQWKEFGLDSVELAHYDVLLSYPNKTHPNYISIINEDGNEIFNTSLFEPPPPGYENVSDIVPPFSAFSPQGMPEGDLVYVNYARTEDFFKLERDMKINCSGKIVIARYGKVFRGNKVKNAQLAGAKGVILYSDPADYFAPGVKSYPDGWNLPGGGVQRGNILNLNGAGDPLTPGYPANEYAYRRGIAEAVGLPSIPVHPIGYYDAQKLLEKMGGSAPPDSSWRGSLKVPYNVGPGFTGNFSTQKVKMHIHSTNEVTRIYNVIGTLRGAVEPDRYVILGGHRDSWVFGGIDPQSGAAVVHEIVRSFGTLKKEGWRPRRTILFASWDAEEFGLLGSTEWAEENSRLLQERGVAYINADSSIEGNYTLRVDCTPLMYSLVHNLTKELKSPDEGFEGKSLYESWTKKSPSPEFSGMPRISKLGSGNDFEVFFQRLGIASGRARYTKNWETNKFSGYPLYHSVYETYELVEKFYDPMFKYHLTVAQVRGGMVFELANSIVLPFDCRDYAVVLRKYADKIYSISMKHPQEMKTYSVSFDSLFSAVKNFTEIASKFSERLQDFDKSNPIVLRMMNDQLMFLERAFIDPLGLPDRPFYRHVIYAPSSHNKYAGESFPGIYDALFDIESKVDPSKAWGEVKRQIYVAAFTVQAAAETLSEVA

## O=C(N[C@@H](CCCCNC(=O)c1ccc(I)cc1)C(=O)O)NC1(C(=O)O)CC1 [32c]
GCPII
  fold stronger binding affinity for GCPII compared to 32a: 4 fold

## C=CC[C@H](NC(=O)N[C@@H](CCCCNC(=O)c1ccc(I)cc1)C(=O)O)C(=O)O [32d]
GCPII
  fold stronger binding affinity for GCPII compared to 32a: 120 fold

## CC(C)C[C@H](NC(=O)N[C@@H](CCC(=O)O)C(=O)O)C(=O)O [ZJ-43, (S)-2-(3-((S)-1-carboxy-3-methylbutyl)ureido)pentanedioic acid]
[1]
  penetration of the blood-brain barrier: low penetration
[1]; high doses (50–100 mg/kg) needed
  analgesic activity: demonstrated analgesic activity
Cloned human GCPII
  Ki: 0.8 nM

From publication PMC2818328 (Bioorganic & medicinal chemistry letters, 2009)
